These results are taken from US8952157B2, “Apoptosis-inducing agents for the treatment of cancer and immune and autoimmune diseases” (AbbVie Inc., priority 2008, dated 2015).

For the first experiment, the target named is GST-Bcl-2 (Homo sapiens (Human), UniProt P10415). Put plainly: Time Resolved-Fluorescence Resonance Energy Transfer (TR-FRET) Bcl-2 binding assay.
Chain of GST-Bcl-2 (P10415 whole entry): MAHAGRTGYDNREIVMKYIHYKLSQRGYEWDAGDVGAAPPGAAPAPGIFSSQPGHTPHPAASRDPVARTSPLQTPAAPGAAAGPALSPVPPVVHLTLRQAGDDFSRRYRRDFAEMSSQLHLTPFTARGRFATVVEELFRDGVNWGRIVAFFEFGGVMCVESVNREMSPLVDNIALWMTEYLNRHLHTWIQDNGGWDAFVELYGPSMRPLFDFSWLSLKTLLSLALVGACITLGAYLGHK
Conditions: not given
In outline: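 Ki values derived from TR-FRET displacement of F-Bak peptide from GST-Bcl-2, detected with Tb-labelled anti-GST antibody (ex 340, em 520/495 nm). Compound dilution series started at 50 μM (2× starting concentration); room-temperature incubation 3 hours.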
For orientation: TR-FRET usually uses a lanthanide donor and a delayed reading to cut background.
On to `CO[C@H]1CC[C@H](CNc2ccc(S(=O)(=O)NC(=O)c3ccc(N4CCN(CC5=C(c6ccc(Cl)cc6)CC(C)(C)CC5)CC4)cc3Oc3cnc(N)c(Br)c3)cc2[N+](=O)[O-])CC1` [Example 367, Trans-2-[(6-amino-5-bromopyridin-3-yl)oxy]-4-(4-{[2-(4-chlorophenyl)-4,4-dimethylcyclohex-1-en-1-yl]methyl}piperazin-1-yl)-N-[(4-{[(4-methoxycyclohexyl)methyl]amino}-3-nitrophenyl)sulfonyl]benzamide], for which the inhibitory constant (Ki) (usually the dissociation constant of the complex between target and ligand, obtained from inhibition or displacement) turned out to be 0.012 nM.
On the same count and under the same terms, in the case of `CO[C@H]1CC[C@H](CNc2ccc(S(=O)(=O)NC(=O)c3ccc(N4CCN(CC5=C(c6ccc(Cl)cc6)CC(C)(C)CC5)CC4)cc3Oc3ccc(NCC(F)F)nc3)cc2[N+](=O)[O-])CC1` [Example 375, Trans-4-(4-{[2-(4-chlorophenyl)-4,4-dimethylcyclohex-1-en-1-yl]methyl}piperazin-1-yl)-2-({6-[(2,2-difluoroethyl)amino]pyridin-3-yl}oxy)-N-[(4-{[(4-methoxycyclohexyl)methyl]amino}-3-nitrophenyl)sulfonyl]benzamide] it was 328 nM.

The same experiment, now with this note: GST-Bcl-2 1 nM, F-Bak peptide probe 100 nM, Tb-anti-GST antibody 1 nM; Ki by Wang's equation.
In turn, `CC1(C)CCC(CN2CCN(c3ccc(C(=O)NS(=O)(=O)c4ccc(NCC5COCCO5)c([N+](=O)[O-])c4)c(Oc4cnc(N)c(Br)c4)c3)CC2)=C(c2ccc(Cl)cc2)C1` (stereo not drawn) [Example 361, 2-[(6-amino-5-bromopyridin-3-yl)oxy]-4-(4-{[2-(4-chlorophenyl)-4,4-dimethylcyclohex-1-en-1-yl]methyl}piperazin-1-yl)-N-({4-[(1,4-dioxan-2-ylmethyl)amino]-3-nitrophenyl}sulfonyl)benzamide] showed an inhibitory constant (Ki) of 0.015 nM.
Same read-out and setting: with `Cc1cc(Oc2cc(N3CCN(CC4=C(c5ccc(Cl)cc5)CC(C)(C)CC4)CC3)ccc2C(=O)NS(=O)(=O)c2ccc(NCC3CCOCC3)c([N+](=O)[O-])c2)cnc1N` [Example 362, 2-[(6-amino-5-methylpyridin-3-yl)oxy]-4-(4-{[2-(4-chlorophenyl)-4,4-dimethylcyclohex-1-en-1-yl]methyl}piperazin-1-yl)-N-({3-nitro-4-[(tetrahydro-2H-pyran-4-ylmethyl)amino]phenyl}sulfonyl)benzamide] the figure was 0.033 nM; with `CC1(C)CCC(CN2CCN(c3ccc(C(=O)NS(=O)(=O)c4ccc(NCC5(F)CCOCC5)c([N+](=O)[O-])c4)c(Oc4cnc(N)c(Cl)c4)c3)CC2)=C(c2ccc(Cl)cc2)C1` [Example 363, 2-[(6-amino-5-chloropyridin-3-yl)oxy]-4-(4-{[2-(4-chlorophenyl)-4,4-dimethylcyclohex-1-en-1-yl]methyl}piperazin-1-yl)-N-[(4-{[(4-fluorotetrahydro-2H-pyran-4-yl)methyl]amino}-3-nitrophenyl)sulfonyl]benzamide], less than 0.01 nM; with `CC1(C)CCC(CN2CCN(c3ccc(C(=O)NS(=O)(=O)c4ccc(NC5CCN(C6COC6)CC5)c([N+](=O)[O-])c4)c(Oc4cnc(N)c(Cl)c4)c3)CC2)=C(c2ccc(Cl)cc2)C1` [Example 364, 2-[(6-amino-5-chloropyridin-3-yl)oxy]-4-(4-{[2-(4-chlorophenyl)-4,4-dimethylcyclohex-1-en-1-yl]methyl}piperazin-1-yl)-N-({3-nitro-4-[(1-oxetan-3-ylpiperidin-4-yl)amino]phenyl}sulfonyl)benzamide], 0.014 nM.
Still for that read-out and setting: in the case of `CC(C)c1cc(Oc2cc(N3CCN(CC4=C(c5ccc(Cl)cc5)CC(C)(C)CC4)CC3)ccc2C(=O)NS(=O)(=O)c2ccc(NCC3CCOCC3)c([N+](=O)[O-])c2)cnc1N` [Example 365, 2-[(6-amino-5-isopropylpyridin-3-yl)oxy]-4-(4-{[2-(4-chlorophenyl)-4,4-dimethylcyclohex-1-en-1-yl]methyl}piperazin-1-yl)-N-({3-nitro-4-[(tetrahydro-2H-pyran-4-ylmethyl)amino]phenyl}sulfonyl)benzamide] it was 4.55 nM; in that of `CC1(C)CCC(CN2CCN(c3ccc(C(=O)NS(=O)(=O)c4ccc(NCC5CCOCC5)c([N+](=O)[O-])c4)c(Oc4cnc(N)c(C5CC5)c4)c3)CC2)=C(c2ccc(Cl)cc2)C1` [Example 366, 2-[(6-amino-5-cyclopropylpyridin-3-yl)oxy]-4-(4-{[2-(4-chlorophenyl)-4,4-dimethylcyclohex-1-en-1-yl]methyl}piperazin-1-yl)-N-({3-nitro-4-[(tetrahydro-2H-pyran-4-ylmethyl)amino]phenyl}sulfonyl)benzamide], 6.05 nM.
Same read-out and setting: with `Cn1c(=O)[nH]c2cccc(Oc3cc(N4CCN(CC5=C(c6ccc(Cl)cc6)CC(C)(C)CC5)CC4)ccc3C(=O)NS(=O)(=O)c3ccc(NCC4CCOCC4)c([N+](=O)[O-])c3)c21` [Example 368, 4-(4-{[2-(4-chlorophenyl)-4,4-dimethylcyclohex-1-en-1-yl]methyl}piperazin-1-yl)-2-[(3-methyl-2-oxo-2,3-dihydro-1H-benzimidazol-4-yl)oxy]-N-({3-nitro-4-[(tetrahydro-2H-pyran-4-ylmethyl)amino]phenyl}sulfonyl)benzamide] the figure was less than 0.01 nM; with `CC1(C)CCC(CN2CCN(c3ccc(C(=O)NS(=O)(=O)c4ccc(NCC5CN(C6CC6)CCO5)c([N+](=O)[O-])c4)c(Oc4cnc(N)c(Cl)c4)c3)CC2)=C(c2ccc(Cl)cc2)C1` (stereo not drawn) [Example 369, 2-[(6-amino-5-chloropyridin-3-yl)oxy]-4-(4-{[2-(4-chlorophenyl)-4,4-dimethylcyclohex-1-en-1-yl]methyl}piperazin-1-yl)-N-[(4-{[(4-cyclopropylmorpholin-2-yl)methyl]amino}-3-nitrophenyl)sulfonyl]benzamide], 0.014 nM; with `CC1(C)CCC(CN2CCN(c3ccc(C(=O)NS(=O)(=O)c4ccc(N[C@@H]5CCN(C6CC6)C5)c([N+](=O)[O-])c4)c(Oc4cnc(N)c(Cl)c4)c3)CC2)=C(c2ccc(Cl)cc2)C1` [Example 370, 2-[(6-amino-5-chloropyridin-3-yl)oxy]-4-(4-{[2-(4-chlorophenyl)-4,4-dimethylcyclohex-1-en-1-yl]methyl}piperazin-1-yl)-N-[(4-{[(3R)-1-cyclopropylpyrrolidin-3-yl]amino}-3-nitrophenyl)sulfonyl]benzamide], less than 0.01 nM.
Consider `CC1(C)CCC(CN2CCN(c3ccc(C(=O)NS(=O)(=O)c4ccc(OCC5(F)CCN(C(CF)CF)CC5)c([N+](=O)[O-])c4)c(Oc4cnc(N)c(Cl)c4)c3)CC2)=C(c2ccc(Cl)cc2)C1` [Example 371, 2-[(6-amino-5-chloropyridin-3-yl)oxy]-4-(4-{[2-(4-chlorophenyl)-4,4-dimethylcyclohex-1-en-1-yl]methyl}piperazin-1-yl)-N-{[4-({4-fluoro-1-[2-fluoro-1-(fluoromethyl)ethyl]piperidin-4-yl}methoxy)-3-nitrophenyl]sulfonyl}benzamide], for which the Ki was less than 0.01 nM.
On the same count and under the same terms, in the case of `CC1(C)CCC(CN2CCN(c3ccc(C(=O)NS(=O)(=O)c4ccc(NCC5CCOCC5)c([N+](=O)[O-])c4)c(Oc4cc(Br)nc(NC(=O)OC(C)(C)C)c4)c3)CC2)=C(c2ccc(Cl)cc2)C1` [Example 372, tert-butyl 6-bromo-4-(5-(4-{[2-(4-chlorophenyl)-4,4-dimethylcyclohex-1-en-1-yl]methyl}piperazin-1-yl)-2-{[({3-nitro-4-[(tetrahydro-2H-pyran-4-ylmethyl)amino]phenyl}sulfonyl)amino]carbonyl}phenoxy)pyridin-2-ylcarbamate] it was 15 nM.
As for `CC1(C)CCC(CN2CCN(c3ccc(C(=O)NS(=O)(=O)c4ccc(NCC5CCOCC5)c([N+](=O)[O-])c4)c(Oc4cc(NC(=O)OC(C)(C)C)nc(NC(=O)OC(C)(C)C)c4)c3)CC2)=C(c2ccc(Cl)cc2)C1` [Example 373, 4-(4-{[2-(4-chlorophenyl)-4,4-dimethylcyclohex-1-en-1-yl]methyl}piperazin-1-yl)-2-[(2,6-Bis-tert-butoxycarbonylamino-pyridin-4-yl)oxy]-N-({3-nitro-4-[(tetrahydro-2H-pyran-4-ylmethyl)amino]phenyl}sulfonyl)benzamide], the Ki worked out at 1200 nM.
Same read-out and setting: in the case of `CC1(C)CCC(CN2CCN(c3ccc(C(=O)NS(=O)(=O)c4ccc(NCC5CCOCC5)c([N+](=O)[O-])c4)c(Oc4ccc(NC5CC5)nc4)c3)CC2)=C(c2ccc(Cl)cc2)C1` [Example 374, 4-(4-{[2-(4-chlorophenyl)-4,4-dimethylcyclohex-1-en-1-yl]methyl}piperazin-1-yl)-2-{[6-(cyclopropylamino)pyridin-3-yl]oxy}-N-({3-nitro-4-[(tetrahydro-2H-pyran-4-ylmethyl)amino]phenyl}sulfonyl)benzamide] it was 5.34 nM.
Still for that read-out and setting: in the case of `CC1(C)CCC(CN2CCN(c3ccc(C(=O)NS(=O)(=O)c4ccc(NCC5CCOCC5)c([N+](=O)[O-])c4)c(Oc4ccc(NCC(F)F)nc4)c3)CC2)=C(c2ccc(Cl)cc2)C1` [Example 376, 4-(4-{[2-(4-chlorophenyl)-4,4-dimethylcyclohex-1-en-1-yl]methyl}piperazin-1-yl)-2-({6-[(2,2-difluoroethyl)amino]pyridin-3-yl}oxy)-N-({3-nitro-4-[(tetrahydro-2H-pyran-4-ylmethyl)amino]phenyl}sulfonyl)benzamide] it was 57.7 nM; in that of `CNc1ncc(Oc2cc(N3CCN(CC4=C(c5ccc(Cl)cc5)CC(C)(C)CC4)CC3)ccc2C(=O)NS(=O)(=O)c2ccc(NCC3CCOCC3)c([N+](=O)[O-])c2)cc1Cl` [Example 377, 2-{[5-chloro-6-(methylamino)pyridin-3-yl]oxy}-4-(4-{[2-(4-chlorophenyl)-4,4-dimethylcyclohex-1-en-1-yl]methyl}piperazin-1-yl)-N-({3-nitro-4-[(tetrahydro-2H-pyran-4-ylmethyl)amino]phenyl}sulfonyl)benzamide], 2.32 nM.
Same read-out and setting: with `CC1(C)CCC(CN2CCN(c3ccc(C(=O)NS(=O)(=O)c4ccc(NCC5CN(C(CF)CF)CCO5)c([N+](=O)[O-])c4)c(Oc4cnc(N)c(Cl)c4)c3)CC2)=C(c2ccc(Cl)cc2)C1` (stereo not drawn) [Example 378, 2-[(6-amino-5-chloropyridin-3-yl)oxy]-4-(4-{[2-(4-chlorophenyl)-4,4-dimethylcyclohex-1-en-1-yl]methyl}piperazin-1-yl)-N-({4-[({4-[2-fluoro-1-(fluoromethyl)ethyl]morpholin-2-yl}methyl)amino]-3-nitrophenyl}sulfonyl)benzamide] the figure was less than 0.01 nM.
